Experiment in all cases: inhibition of tumour cell growth, NCI panel, 48 h
Test [1] deals with SNB-19 CNS.
Test [2] relates to RPMI-8226 leukemia.
The test system of test [3] is SK-MEL-28 melanoma.
The subject of test [4] is ACHN renal.
The subject of test [5] is K-562 leukemia.
Test [6] has as its system 786-0 renal.
The test system of test [7] is HCT-116 colon.
Test [8] deals with SK-OV-3 ovarian.
For test [9], the system named is TK-10 renal.
The test system of test [10] is OVCAR-3 ovarian.

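Values below derive from 48-hour exposures of cells grown in 96-well plates, with endpoints linearly interpolated between the two concentrations bracketing the appropriate inhibition level. Abbreviation: GI50, concentration required for 50% inhibition of growth. Definition used: TGI = concentration required for complete inhibition of growth.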 Where a SMILES comes first, the peptide text is derived from it. Bridges are numbered along the chain shown (N, C = ends). [ ]: non-standard residue; d: D form. aThr = C[C@H](O)[C@H](N)C(=O)O

Take `COC12C(COC(=O)NCCO)C3=C(C(=O)C(C)=C(N)C3=O)N1CC1NC12` (stereo unspecified): the TGI in test [1] was 169 µM; in test [2] it was more than 264 µM; in test [3], more than 264 µM; in [4] it was 142 µM; in test [5], more than 264 µM; in [6] it was more than 264 µM. The TGI in test [7] is 114 µM; in [8], more than 264 µM; in test [9], more than 264 µM; in test [10], 141 µM. Further, the GI50 in test [4] was 13.3 µM; in test [6], 41 µM; in [7], 35.1 µM; in test [8], 100 µM; in test [9] it was 66.8 µM; in test [10], 56.2 µM.

On to `NC1=NC(Cn2nc(-c3ccccc3)c3ccccc3c2=O)=NNC(=O)N1`, for which the TGI in test [1], in test [2], in [3], in test [4], in test [5] and in [6] was more than 100 µM each time. The TGI in [7], in test [8], in test [9] and in test [10] was more than 100 µM throughout.

As for `Nc1nccc(-c2c(-c3ccc(F)cc3)nn3cc(C(F)(F)F)ccc23)n1`, the GI50 in test [1], in test [2], in test [3], in [4], in test [5] and in test [6] was more than 25 µM throughout. Moreover, the GI50 in [7], in [8], in test [9] and in [10] was more than 25 µM in each case. The TGI in test [1], in test [2], in [3], in test [4], in test [5] and in test [6] was more than 25 µM in each case. The TGI in test [7], in test [8], in test [9] and in test [10] was more than 25 µM throughout.

For `CC(C)C[C@@H]1NC(=O)[C@@H]2CCCN2C(=O)[C@@H]2CCCN2C(=O)[C@H](CC(C)C)NC(=O)[C@H](CO)NC(=O)[C@H](CCCCN)NC(=O)[C@H]([C@H](C)O)NC(=O)[C@@H]2CSSC[C@@H](NC1=O)C(=O)N[C@@H](Cc1ccccc1)C(=O)N1CCC[C@H]1C(=O)N[C@@H](CC(=O)O)C(=O)NCC(=O)N[C@@H](CCCN=C(N)N)C(=O)N2` (cyclo(C[aThr]KSLPPL[dC]FPDGR); disulfide 1-9), the GI50 in [1], in test [2], in test [3], in [4], in [5] and in test [6] was more than 50 µM in each case. Moreover, the GI50 in test [7], in test [8], in test [9] and in [10] was more than 50 µM in each case. Also, the TGI in test [1], in test [2], in [3], in test [4], in [5] and in test [6] was more than 50 µM in each case. For the same compound, the TGI in [7], in test [8], in test [9] and in test [10] was more than 50 µM in each case.

As to `C#Cc1ccc(-n2c(/C=C/c3ccc(O)cc3)nc3ncccc3c2=O)cc1`, the GI50 in test [1] was 6.26 µM; in [2], 3.41 µM; in test [3], 5.97 µM; in test [4] it was 6.31 µM; in [5], 4.33 µM; in test [6], 4.88 µM. The GI50 is 5.07 µM in test [7], 3.38 µM in test [8], 8.78 µM in test [9] and 2.41 µM in [10]. Further, the TGI in test [1] was more than 100 µM; in test [2], more than 100 µM; in test [3], more than 100 µM; in [4] it was more than 100 µM; in test [5] it was more than 100 µM; in [6], 50.4 µM. Further, the TGI in [7] was more than 100 µM; in [8], 29.1 µM; in test [9], 68.7 µM; in [10], 5.69 µM.

Turning to `O=C(NCCc1ccccc1)C1C(=O)C(=O)N(CCc2ccccc2)C1=O` (stereo unspecified), the TGI in [1], in test [2], in test [3], in [4], in test [5] and in [6] was more than 100 µM in each case. The TGI in [7], in [8], in test [9] and in test [10] was more than 100 µM in each case.

`O=C(O)CN(CCN(CC(=O)O)CC(=O)O)CC(=O)O.[Mn+2]`: the GI50 in test [1], in test [2], in test [3], in [4], in [5] and in [6] was more than 100 µM throughout. Besides, the GI50 in test [7], in test [8], in test [9] and in test [10] was more than 100 µM each time. The TGI in test [1], in [2], in [3], in [4], in [5] and in test [6] was more than 100 µM each time. The TGI in test [7], in test [8], in [9] and in test [10] was more than 100 µM in each case.

In the case of `N#CC(C#N)=C/C=C(\Sc1ccc(Cl)cc1)c1ccc(F)cc1`, the GI50 in [1] is 5.67 µM; in test [2], 0.0597 µM; in test [3] it was 6.61 µM; in test [4], 1.52 µM; in test [5] it was 0.0844 µM; in test [6], 0.42 µM. For the same compound, the GI50 is 0.0671 µM in [7], 13.5 µM in test [8], 0.857 µM in test [9] and 0.31 µM in test [10]. Also, the TGI is 24.9 µM in test [1]; 1.1 µM in test [2]; 19.3 µM in test [3]; more than 27.7 µM in [4]; more than 100 µM in test [5]; 3.07 µM in [6]. In addition, the TGI was found to be 0.508 µM in [7], 40.7 µM in [8], 3.61 µM in test [9] and 2.6 µM in [10].
